Test results as given in ChEMBL document CHEMBL1201862, “PubChem BioAssay data set” (2004).
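Exposure lasted 48 hours, with cells grown in 96-well plates and compounds tested at five concentrations. At the GI50, growth is halved.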 Active and inactive are the calls of the source. Cut-off read from the data, not from the text of the source: active = GI50 up to about 1.1 µM and inactive = higher.

Legend:
Test in all cases: DTP human tumour cell line panel, 48 h
SK-MEL-5 = system: SK-MEL-5
Malme-3M = system: Malme-3M
SK-OV-3 = system: SK-OV-3
U-251 = system: U-251
NCI-H226 = system: NCI-H226
EKVX = system: EKVX
HCT-15 = system: HCT-15
SK-MEL-28 = system: SK-MEL-28
SK-MEL-2 = system: SK-MEL-2
SN12C = system: SN12C
786-0 = system: 786-0
SNB-19 = system: SNB-19
MOLT-4 = system: MOLT-4
MDA-MB-435 = system: MDA-MB-435
SF-268 = system: SF-268
A549 = system: A549
NCI/ADR-RES = system: NCI/ADR-RES
A498 = system: A498
HCC 2998 = system: HCC 2998

Q: How did the GI50 (SK-MEL-5) turn out when `COC(=O)c1ccc(-c2nc(C#N)c(N)o2)cc1` was run?
A: Its GI50 is > 100 µM (inactive).

Q: What about the GI50 (Malme-3M) of the same compound?
A: Its GI50 is > 100 µM (inactive).

Q: What about the GI50 (SK-OV-3) of the same compound?
A: The GI50 was > 100 µM (inactive).

Q: And the GI50 (U-251)?
A: The GI50 was 31.6 µM (inactive).

Q: And the GI50 (NCI-H226)?
A: Its GI50 is > 100 µM (inactive).

Q: What about the GI50 (EKVX) of the same compound?
A: The GI50 was > 100 µM (inactive).

Q: What about the GI50 (HCT-15) of the same compound?
A: The GI50 was over 100 µM.

Q: What about the GI50 (SK-MEL-28) of the same compound?
A: The GI50 was > 100 µM (inactive).

Q: And the GI50 (SK-MEL-2)?
A: Its GI50 is > 100 µM (inactive).

Q: What about the GI50 (SN12C) of the same compound?
A: Its GI50 is > 100 µM (inactive).

Q: What about the GI50 (786-0) of the same compound?
A: Its GI50 is 59.3 µM (inactive).

Q: And the GI50 (SNB-19)?
A: Its GI50 is 34.7 µM (inactive).

Q: What about the GI50 (MOLT-4) of the same compound?
A: Its GI50 is > 100 µM (inactive).

Q: What about the GI50 (MDA-MB-435) of the same compound?
A: Its GI50 is > 100 µM (inactive).

Q: What about the GI50 (SF-268) of the same compound?
A: Its GI50 is 37.7 µM (inactive).

Q: What about the GI50 (A549) of the same compound?
A: Its GI50 is > 100 µM (inactive).

Q: Which GI50 (SK-MEL-5) does the source give for `O=C(NCCC1CN(S(=O)(=O)C(F)(F)F)c2ccccc21)OCc1ccccc1` (stereo not drawn) here?
A: Its GI50 is > 100 µM (inactive).

Q: What about the GI50 (Malme-3M) of the same compound?
A: Its GI50 is 12 µM (inactive).

Q: What about the GI50 (SK-OV-3) of the same compound?
A: Its GI50 is > 100 µM (inactive).

Q: And the GI50 (U-251)?
A: Its GI50 is 83.9 µM (inactive).

Q: What about the GI50 (EKVX) of the same compound?
A: The GI50 was > 100 µM (inactive).

Q: And the GI50 (HCT-15)?
A: The GI50 was over 100 µM.

Q: And the GI50 (SK-MEL-28)?
A: The GI50 was > 100 µM (inactive).

Q: And the GI50 (SK-MEL-2)?
A: The GI50 was > 100 µM (inactive).

Q: And the GI50 (NCI/ADR-RES)?
A: The GI50 was > 100 µM (inactive).

Q: And the GI50 (A498)?
A: The GI50 was > 100 µM (inactive).

Q: And the GI50 (786-0)?
A: Its GI50 is > 100 µM (inactive).

Q: And the GI50 (SNB-19)?
A: The GI50 was > 100 µM (inactive).

Q: What about the GI50 (MOLT-4) of the same compound?
A: The GI50 was 59.2 µM (inactive).

Q: And the GI50 (HCC 2998)?
A: Its GI50 is > 100 µM (inactive).

Q: What about the GI50 (MDA-MB-435) of the same compound?
A: The GI50 was > 100 µM (inactive).

Q: And the GI50 (SF-268)?
A: The GI50 was > 100 µM (inactive).

Q: What about the GI50 (A549) of the same compound?
A: Its GI50 is > 100 µM (inactive).

Q: How did the GI50 (SK-MEL-5) turn out when `CC1CSc2nc3nc(S)nc-3c(O)n2C1` (stereo not drawn) was run?
A: Its GI50 is > 100 µM (inactive).

Q: And the GI50 (Malme-3M)?
A: Its GI50 is > 100 µM (inactive).

Q: What about the GI50 (SK-OV-3) of the same compound?
A: The GI50 was > 100 µM (inactive).

Q: What about the GI50 (U-251) of the same compound?
A: Its GI50 is > 100 µM (inactive).

Q: And the GI50 (NCI-H226)?
A: The GI50 was > 100 µM (inactive).

Q: And the GI50 (EKVX)?
A: The GI50 was > 100 µM (inactive).

Q: And the GI50 (HCT-15)?
A: The GI50 was over 100 µM.

Q: And the GI50 (SK-MEL-28)?
A: The GI50 was > 100 µM (inactive).

Q: What about the GI50 (NCI/ADR-RES) of the same compound?
A: Its GI50 is > 100 µM (inactive).

Q: What about the GI50 (SN12C) of the same compound?
A: Its GI50 is > 100 µM (inactive).

Q: What about the GI50 (A498) of the same compound?
A: The GI50 was > 100 µM (inactive).

Q: And the GI50 (786-0)?
A: Its GI50 is > 100 µM (inactive).

Q: And the GI50 (SNB-19)?
A: The GI50 was > 100 µM (inactive).

Q: What about the GI50 (MOLT-4) of the same compound?
A: The GI50 was > 100 µM (inactive).

Q: And the GI50 (HCC 2998)?
A: Its GI50 is > 100 µM (inactive).

Q: And the GI50 (MDA-MB-435)?
A: Its GI50 is > 100 µM (inactive).

Q: And the GI50 (SF-268)?
A: Its GI50 is > 100 µM (inactive).

Q: And the GI50 (A549)?
A: Its GI50 is > 100 µM (inactive).

Q: Which results are given for `COc1cccc(NCC(=O)Nn2c(-c3ccccc3)nc3ccccc3c2=O)c1`?
A: GI50 (SK-MEL-5): 57.7 µM (inactive); GI50 (Malme-3M): > 100 µM (inactive); GI50 (SK-OV-3): > 100 µM (inactive); GI50 (U-251): > 100 µM (inactive); GI50 (NCI-H226): > 100 µM (inactive); GI50 (EKVX): 91.6 µM (inactive); GI50 (HCT-15): > 100 µM; GI50 (SK-MEL-28): > 100 µM (inactive); GI50 (NCI/ADR-RES): > 100 µM (inactive); GI50 (SN12C): > 100 µM (inactive); GI50 (A498): 17.6 µM (inactive); GI50 (786-0): > 100 µM (inactive); GI50 (SNB-19): > 100 µM (inactive); GI50 (MOLT-4): > 100 µM (inactive); GI50 (HCC 2998): > 100 µM (inactive); GI50 (MDA-MB-435): > 100 µM (inactive); GI50 (SF-268): > 100 µM (inactive); GI50 (A549): > 100 µM (inactive)

Q: Which results are given for `O=C1C(Cl)=C(Nc2ccc(S(=O)(=O)O)cc2)C(=O)c2ccccc21`?
A: GI50 (SK-MEL-5): 13.4 µM (inactive); GI50 (Malme-3M): 20.1 µM (inactive); GI50 (U-251): 36.8 µM (inactive); GI50 (NCI-H226): 34.4 µM (inactive); GI50 (EKVX): 15.7 µM (inactive); GI50 (HCT-15): 35.2 µM; GI50 (SK-MEL-28): 32.1 µM (inactive); GI50 (SK-MEL-2): 23.7 µM (inactive); GI50 (NCI/ADR-RES): > 100 µM (inactive); GI50 (786-0): 27.2 µM (inactive); GI50 (SNB-19): 24.6 µM (inactive); GI50 (MOLT-4): 42.1 µM (inactive); GI50 (HCC 2998): 95.9 µM (inactive); GI50 (MDA-MB-435): 21.7 µM (inactive); GI50 (SF-268): 39.3 µM (inactive); GI50 (A549): 21.9 µM (inactive)

Q: `COC(=O)Cc1ccc(Oc2nc3ccccc3nc2-c2cccs2)cc1` was tested. Which GI50 (SK-MEL-5) did it give?
A: The GI50 was > 100 µM (inactive).

Q: And the GI50 (Malme-3M)?
A: The GI50 was > 100 µM (inactive).

Q: And the GI50 (SK-OV-3)?
A: The GI50 was 24.8 µM (inactive).

Q: What about the GI50 (U-251) of the same compound?
A: Its GI50 is 39.1 µM (inactive).

Q: What about the GI50 (NCI-H226) of the same compound?
A: The GI50 was 35.7 µM (inactive).

Q: What about the GI50 (EKVX) of the same compound?
A: The GI50 was > 100 µM (inactive).

Q: And the GI50 (HCT-15)?
A: Its GI50 is over 100 µM.

Q: And the GI50 (SK-MEL-28)?
A: The GI50 was > 100 µM (inactive).

Q: What about the GI50 (SK-MEL-2) of the same compound?
A: The GI50 was 53.5 µM (inactive).

Q: And the GI50 (NCI/ADR-RES)?
A: The GI50 was 79.4 µM (inactive).

Q: What about the GI50 (SN12C) of the same compound?
A: Its GI50 is > 100 µM (inactive).

Q: And the GI50 (786-0)?
A: Its GI50 is 40.7 µM (inactive).

Q: What about the GI50 (SNB-19) of the same compound?
A: The GI50 was 40.8 µM (inactive).

Q: What about the GI50 (MOLT-4) of the same compound?
A: Its GI50 is > 100 µM (inactive).

Q: And the GI50 (HCC 2998)?
A: The GI50 was > 100 µM (inactive).

Q: And the GI50 (MDA-MB-435)?
A: The GI50 was > 100 µM (inactive).

Q: What about the GI50 (SF-268) of the same compound?
A: Its GI50 is 36 µM (inactive).

Q: And the GI50 (A549)?
A: The GI50 was > 100 µM (inactive).
